Data set [1] can be described thus: Distribution coefficient (logD7.4), shake-flask n-octanol/buffered water. It is filed as physicochemical. As to conditions: n-octanol/phosphate buffered saline pH 7.4, shake-flask. The method, then:
The n-octanol-water coefficients of the phosphane derivatives were determined as previously reported using a shake-flask method. Briefly: Buffered-saline distilled water (100 mL, phosphate buffer [PO4^3−] = 10 mM, [NaCl] = 0.15 M, pH 7.4) and n-octanol (100 mL) were shaken together for 72 h to allow saturation of both phases. 1 mg of the complexes was dissolved in 5 mL of the aqueous phase and 5 mL of the organic phase were added, mixing for 10 min. The concentration of the complexes in the organic and aqueous phases were then determined using UV absorbance spectroscopy. LogD7.4 = log{[compound(organic phase)]/[compound(aqueous phase)]}.
The lipophilicity can be measured by the partition coefficient water/n-octanol, logD, by experimental procedures such as the shake flask method, which affords the distribution of the drug between an equal amount of n-octanol and water (or buffered aqueous solution).

Another data set concerns Caco-2/TC7 cells. The data set can be described thus: MTT cytotoxicity / antiproliferative assay on Caco-2/TC7 cells. The data set is classed as cell-based, human. As for the experimental part:
Human fibroblast cells were kindly provided by Dr. Julio Montoya (Unidad de Bioquímica, Facultad de Veterinaria, Universidad de Zaragoza, Spain). Caco-2 cells (passages 40–70) and fibroblasts (passages 10–30) were maintained in a humidified atmosphere of 5% CO2 at 37 °C. Cells were grown in Dulbecco’s Modified Eagles medium (DMEM) (Gibco Invitrogen, Paisley, UK) supplemented with 20% fetal bovine serum (FBS), 1% non-essential amino acids, 1% penicillin (1000 U/mL), 1% streptomycin (1000 μg/mL) and 1% amphotericin (250 U/mL). […] Caco-2 cells were sub-cultured on 25 cm^2 plastic flasks at a density of 1.2 × 10^4 cells/cm^2, while fibroblasts were sub-cultured on 75 cm^2 plastic flasks at a density of 1 × 10^4 cells/cm^2. Culture medium was replaced every 2 days.
Gold complex was diluted in dimethyl sulfoxide (DMSO) to a stock solution at 20 mM and then re-diluted to a working solution at 2.5 mM before diluting it in cell culture medium to treat cells at desired concentrations.
The influence of hyperthermia was studied by incubating cells at 40 °C for 1 h immediately after treating them with the gold complexes.
For cytotoxicity screening assays, Caco-2 cells were seeded in 96-well plates at a density of 4 × 10^3 cells/well. Culture medium was replaced with medium containing drug panel 24 h post-seeding and cells were incubated for 72 h. In fibroblasts, culture medium containing metal gold complexes was added 10 days post-seeding. Antiproliferative effect was measured with MTT assay as previously described by Mármol et al.. […] To determine the selectivity index (SI) the IC50 value in fibroblasts was divided by IC50 value in Caco-2, obtaining a ratio cancerous/normal cells toxicity.

Data set [2] concerns Caco-2 cells. The data set can be described thus: Mitochondrial membrane potential assay by flow cytometry (DilC1). It is filed as cell-based, human. The conditions noted are these: Caco-2, 48 h; 3a 5.0 µM, 3b 10.2 µM. The method, then: Caco-2 cells were seeded in 75 cm^2 flasks at a density of 1 × 10^4 cells/cm^2 and 24 h post-seeding medium was replaced with medium containing drug panel and incubated for 48 h. Then. cells were washed twice and resuspended in PBS at a concentration of 10^6 cells/mL before incubation with 5 µL of 10 µM 1,1′,3,3,3′-hexamethylindodicarbo-cyanine iodide (DilC1).

Data set [3] concerns caspase-3 in Caco-2 cells. The data set can be described thus: Determination of active caspase-3 by flow cytometry. The data set is classed as cell-based, human. The conditions noted are these: Caco-2, 48 h; 3a 5.0 µM, 3b 10.2 µM. As for the experimental part:
Caco-2 cells were seeded in 75 cm^2 flask at a density of 1 × 10^4 cells/cm^2 and, 24 h later, exposed to drug panel for 48 h. Then cells were collected and processed following instructions by Sánchez-de-Diego et al. Finally, 50 µL of every sample were incubated with 5 µL anti-active caspase-3 (BD Pharmigen, Clone C92-605) and 5 µL p53 antibody (Miltenyi, Clone REA609).

Data set [4] has as its system Caco-2 cells. The data set can be described thus: Intracellular ROS levels, dichlorofluorescein assay. The data set is classed as cell-based, human. The conditions noted are these: for intracellular ROS levels, 1 h and 3 h: Caco-2, treated for 1 h and 3 h at IC50 values; for intracellular ROS levels, 24 h: Caco-2, treated for 24 h with IC50 values. The method, then: Caco-2 cells were seeded in 96-wells plate at a density of 4 × 10^3 cells/well and intracellular ROS levels were determined with the dichlorofluorescein assay. Cells were exposed to drug panel for 1, 3 and 24 h and then incubated with 20 µM 2′-7′-dichlorofluorescein diacetate (DCFH-DA) (Merck KGaA, Darmstadt, Germany) in DMEM. The generation of oxidised derivative DCF was monitored by measuring the increase of fluorescence for 1 h, at an emission wavelength of 520 nm and excitation of 485 nm, with a FLUOstar Omega (BMG Labtech, Ortenberg, Germany) multiplate reader. Results were expressed as percentage of fluorescence respect to control, considering fluorescence intensity as a reflection of intracellular ROS levels.

The next data set deals with T1, Recombinant Human TrxR1 (Homo sapiens, UniProt Q16881).
T1 construct: purchased Sigma-Aldrich SRP6081
T1 sequence (Q16881 151-649 limits assumed): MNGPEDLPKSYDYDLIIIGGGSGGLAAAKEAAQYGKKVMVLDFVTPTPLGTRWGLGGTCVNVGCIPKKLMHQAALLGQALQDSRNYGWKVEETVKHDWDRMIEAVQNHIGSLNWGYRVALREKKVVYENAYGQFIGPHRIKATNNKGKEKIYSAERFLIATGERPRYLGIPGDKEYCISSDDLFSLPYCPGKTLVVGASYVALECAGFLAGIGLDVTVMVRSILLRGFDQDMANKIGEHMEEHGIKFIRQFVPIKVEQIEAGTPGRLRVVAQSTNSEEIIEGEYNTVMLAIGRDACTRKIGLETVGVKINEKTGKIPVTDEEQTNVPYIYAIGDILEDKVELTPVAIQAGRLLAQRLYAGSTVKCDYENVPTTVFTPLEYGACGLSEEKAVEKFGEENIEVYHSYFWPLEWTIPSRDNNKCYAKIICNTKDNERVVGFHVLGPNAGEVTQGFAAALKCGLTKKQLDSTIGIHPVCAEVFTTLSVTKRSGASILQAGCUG
In words: Thioredoxin reductase 1 (TrxR1) activity assay. It is filed as biochemical. As to conditions: auranofin 25 µM; 3a and 3b at IC50 concentrations. As for the experimental part:
Recombinant Human TrxR1 (Sigma-Aldrich SRP6081, St. Louis, MO, USA) was incubated in a 96 well plate with different concentration of Au complex previously dissolved in 25 μL of PBS at pH 7.4. The cell solution was incubated in shake motion for 5 min at 37 °C. After incubation time, procedure in Thioredoxin Reductase Assay Kit (Sigma-Aldrich CS0170, St. Louis, MO, USA) was followed. Finally, reaction was started by adding 6 μL DNTB and absorbance at 405 nm was recorded every 30 s for 22 min as a measure of Thioredoxin Reductase Activity.

[5] abbreviates: 37 °C values rounded, read-out: IC50 values in Caco-2.
Setting [6] is: 72 h, MTT, 37 °C, mean ± SE, read-out: IC50 Caco-2/TC7 37 °C.
Where [7] appears, read: read-out: IC50 Caco-2/TC7 40 °C, 72 h, MTT, 1 h at 40 °C immediately after treatment (hyperthermia), mean ± SE.

Read-outs that look alike come from different tables or passages of the source.

Take `CCCCCCCC[N+]12CN3CN(C1)C[P+]([Au-][S]c1ccccn1)(C3)C2.[I-]` [Complex 3a, [Au(C5H5NS)(PTA-CH2(CH2)6CH3)]I]: the logD7.4 in data set [1] was 0.35. Besides, the IC50 in the data set on Caco-2/TC7 cells (setting [5]) stood at 2.5 µM; with Caco-2/TC7 cells (setting [6]) it was 2.49 ± 0.31 µM; in the data set with Caco-2/TC7 cells (setting [7]) it was 2.05 ± 0.32 µM. Moreover, in the data set with Caco-2 cells [2], the “mitochondrial depolarisation (cells with reduced ΔΨm)” value was “induced mitochondrion depolarisation”. The “caspase-3 activation (cells with active caspase-3)” value in data set [3] is “could induce caspase-3 activation”. Further, in the data set on Caco-2 cells [4], the “intracellular ROS levels, 1 h and 3 h” value was “did not bring significant changes”. Further, the “intracellular ROS levels, 24 h” value in the data set with Caco-2 cells [4] is “significant increase”. Moreover, at Recombinant Human TrxR1, the “TrxR1 activity related to control” value was “Inhibitory effect”.
In data set [1], `FC(F)(F)C(F)(F)C(F)(F)C(F)(F)C(F)(F)C(F)(F)CC[N+]12CN3CN(C1)C[P+]([Au-][S]c1ccccn1)(C3)C2.O=S(=O)([O-])C(F)(F)F` [Complex 3b, [Au(C5H5NS)(PTA-CH2CH2(CF2)5CF3)](TfO)] showed a logD7.4 of 0.44. The values for the IC50 in the data set with Caco-2/TC7 cells (setting [5]), in the data set with Caco-2/TC7 cells (setting [6]) and in the data set with Caco-2/TC7 cells (setting [7]) were 5.1 µM, 5.11 ± 1.25 µM and 4.26 ± 0.34 µM, respectively. For the same compound, the “mitochondrial depolarisation (cells with reduced ΔΨm)” value in the data set with Caco-2 cells [2] is recorded as “induced mitochondrion depolarisation”. Also, the “caspase-3 activation (cells with active caspase-3)” value in data set [3] is on record as “could induce caspase-3 activation”. In addition, the “intracellular ROS levels, 1 h and 3 h” value with Caco-2 cells [4] is “did not bring significant changes”. In addition, the “intracellular ROS levels, 24 h” value in the data set with Caco-2 cells [4] is recorded as “significant increase”. For the same compound, the “TrxR1 activity related to control” value at Recombinant Human TrxR1 is “Inhibitory effect”.

The values above are taken from PMC8698759, “Gold(I) Complexes Bearing Alkylated 1,3,5-Triaza-7-phosphaadamantane Ligands as Thermoresponsive Anticancer Agents in Human Colon Cells” (Biomedicines, 2021).
